According to patent US20150342876A1, “METHODS AND PHARMACEUTICAL COMPOSITIONS FOR THE TREATMENT OF OCULAR INFLAMMATORY DISEASES” (Institut National de la Santé et de la Recherche Médicale …, priority 2011, published 2015):

Legend:
Type in all cases: in vivo, Lewis rats
TNF-α = assay: Chemokine/cytokine multiplex assay of ocular media in EIU: TNF-α; settings: compared with control animals treated with the vehicle alone (FIG. 2)
Procedure: (§1) Aqueous humor and vitreous collected from each eye were pooled, diluted to obtain a final volume of 25 μL, and subjected to multiplex bead analysis. This method uses microspheres as the solid support for immunoassays (Vignali D A. Multiplexed particle-based flow cytometric assays. J Immunol Methods. 2000; 243:243-255.) and allows the titration of a greater number of cytokines with increased sensitivity than occurs with ELISA (Ooi K G, Galatowicz G, Towler H M, Lightman S L, Calder V L. Multiplex cytokine detection versus ELISA for aqueous humor: IL-5, IL-10, and IFNγ profiles in uveitis. Invest Ophthalmol Vis Sci. 2006; 47:272-277.). The rat cytokine/chemokine LINCO-16plex kit (Linco Research) was purchased from Invitrogen (Cergy-Pontoise, France). Chemokine MIP1α/CCL3, proinflammatory mediator TNF-α, cytokines IFN-γ/IL-4, and IL-6 were measured according to the manufacturer's instructions. The assay was performed in a 96-well filter plate with all the assay components provided in the kit. Standard curves for each cytokine were generated with a calibration kit (Bio-Rad, Hercules, Calif.). All incubation steps were performed at room temperature with medium orbital agitation and in the dark to protect the beads from light. Data acquisition and analysis were performed with the manager software version 4.1 (Bioplex; Bio-Rad) with four or five logistic parameters for standard curves. […]

MIP1α/CCL3 = assay: Chemokine/cytokine multiplex assay of ocular media in EIU: MIP1α/CCL3; settings: compared with control animals treated with the vehicle alone (FIG. 2)
Procedure: as §1

blood-ocular barrier = assay: Proteins present in eye fluids (leaking of the blood-ocular barrier) in EIU; settings: at 6 hours, versus vehicle
From the text: Proteins present in eye fluids reflect the leaking of the blood-ocular barrier.

MR = assay: Expression of MR in the iris and ciliary body in EIU (quantitative PCR); settings: after intravitreal injection in EIU, p<0.05
Procedure: (§2) Iris and ciliary body tissues are most involved in the EIU. In an attempt to understand the role of MR and GR in EIU model, we evaluated the expression of these two receptors in quantitative PCR in the iris/ciliary body 3 h, 6 h and 24 h after injection of LPS. We were surprised that the kinetics of MR and GR were not similar. 3 hours after induction of EIU (p<0.001), so before the infiltration of inflammatory cells, there was a decreased expression of MR, which was maintained up to 24 hours (p<0.001). On the contrary the decreased expression of GR was later in the 24th hour (p<0.01). Immunohistochemical studies confirmed the decrease in the rate of receptors in the iris. The decreased expression of MR and GR takes place mainly in the endothelial cells of vessels in the iris and iris stromal cells. At baseline, the binding of endogenous glucocorticoids to MR likely plays a role in anti-inflammatory. The reduction of early MR can be seen as a step prior to the onset of ocular inflammation.
(§3) The expression of MR and GR in the iris and ciliary body is increased after intravitreal injection of aldosterone (p<0.05). […] Presumably, the anti-inflammatory effect of aldosterone in this model is partly due to the increased expression of MR.

IFN-γ/IL-4 = assay: Chemokine/cytokine multiplex assay of ocular media in EIU: IFN-γ/IL-4; settings: compared with control animals treated with the vehicle alone (FIG. 2)
Procedure: as §1

[1] = system: resident microglial cells of the retina and ciliary body; assay: Anti-IBA-1 immunohistochemistry of resident microglial cells in EIU; settings: 24 h after LPS and intravitreal injection, compared to eyes injected with the vehicle
Procedure: To evaluate the effect of aldosterone on resident microglial cells of the retina and ciliary body, we performed immunohistochemical studies with an anti-IBA-1 antibody coupled with a secondary antibody Alexa488 on cryostat sections 24 h after LPS injection and injection intravitreal aldosterone or spironolactone. […] The anti-inflammatory effect of aldosterone may be related to the deactivation of resident microglial cells.

GR = assay: Expression of GR in the iris and ciliary body in EIU (quantitative PCR); settings: after intravitreal injection in EIU
Procedure: as §2, §3

[2] = system: Endotoxin-induced uveitis; assay: Endotoxin-induced uveitis, clinical score at slit lamp; settings: for severity of uveitis (clinical examination): slit lamp 24 hours after LPS
Procedure: Female Lewis rats (6- to 8-week old) weighing 230-250 g (Elevage Janvier, Le Genest Saint Isle, France) were used and handled in accordance with the ARVO Statement for the Use of Animals in Ophthalmic and Vision Research. Rats were anesthetized with intramuscular injection of ketamine (75 mg kg^−1; Virbac, Carros Cedex, France) and Largactil (0.5 mg kg^−1; Sanofi-aventis, Paris, France) before ocular injection and ET. At the end of the experiments, rats were anesthetized by intraperitoneal injection of pentobarbital (30 mg kg^−1; Sanofi-aventis) before blood collection by intracardiac puncture and then killed with a lethal dose of pentobarbital.
Endotoxin-induced uveitis was induced by footpad injection of 0.1 ml sterile pyrogen-free saline containing 500 μgkg^−1 LPS (from Salmonella typhimurium; Sigma-Aldrich). Animals were examined by slit lamp during the maximal severity of EIU developing in this model 24 h after the footpad injection. The intensity of clinical ocular inflammation was scored on a scale from 0 to 5 for each eye as described previously (Behar-Cohen F F, Parel J M, Pouliquen Y, Thillaye-Goldenberg B, Goureau O, Heydolph S et al. Iontophoresis of dexamethasone in the treatment of endotoxin-induced-uveitis in rats. Exp Eye Res 1997; 65: 533-545.): grade (0) indicates no inflammation; grade 1 indicates the presence of a minimal iris and conjunctival vasodilation but without the observation of flare or cells in the anterior chamber (AC); grade 2 indicates the presence of moderate iris and conjunctival vessel dilation but without evident flare or cells in the AC; grade 3 indicates the presence of intense iris vessels dilation, flare and less than 10 cells per slit lamp field in the AC; grade 4 indicates the presence of more severe clinical signs than grade 3, with more than 10 cells in the AC with or without the formation of a hypopyon; grade 5 indicates the presence of intense inflammatory reaction, fibrin formation in the AC and total seclusion of the pupil.
Clinical evaluation was performed in a masked manner by two observers. The mean clinical score of the two observers was recorded.
Lewis rats were anesthetized by intraperitoneal injection of 0.15 mL pentobarbital (5.47 g/100 mL saline). Pupils were dilated by instillation of one drop of tropicamide 5%. One drop of tetracaine 1% was administered for local anesthesia. Intravitreal injections (10 μL) of aldosterone (20 nM and 200 nM) and spironolactone (10 μM) were performed in both eyes using sterile syringes fitted with a 30-gauge needle (Microfine; Becton Dickinson AG, Meylan, France). Intravitreal injections were performed simultaneously with EIU induction, as described.
Results are expressed as mean±SEM. The Mann-Whitney U test was used to determine differences between groups. […]

IL-6 = assay: Chemokine/cytokine multiplex assay of ocular media in EIU: IL-6; settings: compared with control animals treated with the vehicle alone (FIG. 2)
Procedure: as §1

macrophages = assay: EDI positive cell counts in histological sections (immunohistochemistry) in EIU; settings: intravitreal 200 nM, 24 h after LPS, compared to eyes injected vehicle or spironolactone, p<0.05
Procedure: To evaluate the effect of intravitreal injection of 200 nM aldosterone and spironolactone 10 μM, immunohistochemical studies were performed on cryostat sections. An anti EDI antibody coupled with an Alexa488 secondary antibody was used to mark macrophages which are among the cells most involved in EIU. We conducted an EDI positive cell counts in histological sections 24 h after LPS injection and intravitreal injection of aldosterone or spironolactone.

Row | SMILES | TNF-α in the ocular media (TNF-α) | MIP1α/CCL3 in the ocular media (MIP1α/CCL3) | rate of protein in eye fluids (blood-ocular barrier) | expression of MR in the iris and ciliary body (MR) | IFN-γ/IL-4 in the ocular media (IFN-γ/IL-4) | state of microglial cells (IBA-1) [1] | expression of GR in the iris and ciliary body (GR) | intensity of uveitis (clinical examination) ([2]; intravitreal injection 10 microM, 24 hours) | IL-6 in the ocular media (IL-6) | severity of uveitis (clinical examination) ([2]; injection 1 nM) | severity of uveitis (clinical examination) ([2]; intravitreal injection 20 nM, p<0.05) | severity of uveitis (clinical examination) ([2]; intravitreal injection 200 nM, p<0.001) | number of macrophages (EDI positive cell counts) (macrophages)
1 | CC(=O)S[C@@H]1CC2=CC(=O)CC[C@]2(C)[C@H]2CC[C@@]3(C)[C@@H](CC[C@@]34CCC(=O)O4)[C@H]12 [spironolactone] | significantly increased | significantly increased | had no effect | exacerbated the decrease in MR | significantly increased | larger number of microglial cells were round, and consequently active | has no effect | increased the intensity of uveitis | significantly increased |  |  |  | 
2 | C[C@]12CCC(=O)C=C1CC[C@@H]1[C@@H]2[C@@H](O)C[C@]2(C=O)[C@@H](C(=O)CO)CC[C@@H]12 [aldosterone, 11β,21-dihydroxy-3,20-dioxopregn-4-en-18-al] | significantly reduced | significantly reduced | significantly reduced | increased | significantly reduced | greater number of microglial cells were then branched into a latent state | increased |  | significantly reduced | had no effect | severity decrease statistically significant | severity decrease statistically significant | decrease in the number of macrophages
